Broadly, the IC50 is the concentration needed to halve the response being measured.

This note sets out measurements from PubChem BioAssay AID1794828.

SMILES strings stand for the structures.

The assay deals with Solute carrier family 2, facilitated glucose transporter member 4 (Homo sapiens) (UniProt P14672). Briefly: SLC2A4-mediated glucose transport modulation – cell-based, flow cytometry, glucose FRET sensor, HEK293 JumpIN TRex, wild type, dose response (AID 1794828). The settings on record: HEK293 JumpIN SLC2A4-OE. For orientation: Flow cytometry measures light scatter and fluorescence of single cells or particles in a stream.
Solute carrier family 2, facilitated glucose transporter member 4 (Homo sapiens), sequence (P14672 whole entry, looked up): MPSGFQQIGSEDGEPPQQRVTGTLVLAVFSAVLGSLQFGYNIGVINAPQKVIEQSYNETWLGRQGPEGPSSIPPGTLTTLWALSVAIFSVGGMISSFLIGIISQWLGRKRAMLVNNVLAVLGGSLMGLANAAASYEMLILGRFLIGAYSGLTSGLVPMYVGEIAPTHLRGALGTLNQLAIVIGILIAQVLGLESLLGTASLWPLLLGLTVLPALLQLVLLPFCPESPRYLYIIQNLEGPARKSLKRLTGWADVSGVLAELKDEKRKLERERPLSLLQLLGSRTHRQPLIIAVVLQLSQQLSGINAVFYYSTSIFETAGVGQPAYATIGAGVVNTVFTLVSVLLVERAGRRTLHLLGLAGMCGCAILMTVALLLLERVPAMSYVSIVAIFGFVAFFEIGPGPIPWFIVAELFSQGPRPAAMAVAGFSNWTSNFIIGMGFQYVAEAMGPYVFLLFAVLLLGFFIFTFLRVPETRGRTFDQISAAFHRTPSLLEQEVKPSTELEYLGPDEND

With `O=C(Oc1cccc(F)c1OC(=O)c1cccc(O)c1)c1cccc(O)c1`, the half-inhibitory concentration (IC50) is 2.5 µM.
With `OC[C@H]1OC(O)[C@H](O)[C@@H](O)[C@@H]1O` (stereo partly drawn), the EC50 (substrate uptake, increase) is 860 µM.
`Cc1c(NC(=O)c2cc(C(N)=O)nc3cc(F)ccc23)c(C(F)(F)F)nn1Cc1ccc(C#N)cc1`: the IC50 was 5.5 µM.
